ChEMBL document CHEMBL1122594, “Parasite enzymes as potential targets for antiparasitic chemotherapy” (J Med Chem, 1984)
Active and inactive are the calls of the source. The calls are words filed in the database; no cut-off is given here.

Experiments:
[1] = Anticoccidial activity against toxoplasmosis in cattle; no activity; assay type: functional
Gallus gallus = species: Gallus gallus; experiment: Anticoccidial activity against toxoplasmosis in chicken; no activity; assay type: functional, organism-based
[2] = (§1) Enzymatic activity was determined
[3] = as §1; remark: listed apart in the source

Ki [3] [µM]	SMILES	also measured
	CCCc1ncc(C[n+]2ccccc2C)c(N)n1	Activity [1]: inactive; Activity (Gallus gallus): inactive
	Nc1ccc(C(=O)O)cc1	Km [2]: 1.5 µM
130	Nc1ccc(S(N)(=O)=O)cc1 [SULFANILAMIDE]	
14	Nc1ccc(S(=O)(=O)Nc2nccs2)cc1 [SULFATHIAZOLE]	

SMILES	Ki [3] [µM]	also measured
N=C(N)NS(=O)(=O)c1ccc(N)cc1 [SULFAGUANIDINE]	69	
